Laboratory results taken from US8350079B2, “Treprostinil formulation” (United Therapeutics Corporation, priority 2008, dated 2013).

Test: Extended room temperature storage of treprostinil monohydrate lot D-1007-089 (18-month stability summary: water content, assay/impurity profile)
Type: physicochemical
Settings: for TREPROSTINIL Assay: in % (unit assumed)
Experimental: 2. UT Stability Summary (18-month) for monohydrate lot # D-1007-089
A 3.4-kg sample of treprostinil diethanolamine salt was dissolved in 36 L of sterile water, 60 L of ethyl acetate and 3.6 L of 3 M HCl were added and the mixture stirred. The layers were separated and the aqueous layer was extracted thrice with 20-L portions of ethyl acetate. The four organic layers were combined, the organic solution washed twice with 20-L portions of sterile water, once with 20 L of brine and dried over 2.86 kg of anhydrous sodium sulfate. The mixture was filtered and the filtrate was concentrated to yield treprostinil as a gummy solid. This solid was transferred to glass drying trays and let air-dry for 66 hours. This solid was then dissolved in 23.8 kg of ethanol, warmed to 48° C. and treated with 23.8 kg of warm (40-50° C.) sterile water. The solution was stirred and then stirring was stopped to allow the treprostinil to slowly crystallize. The resulting white solid was collected by filtration in an Aurora filter, washed with 45 L of a cold (6° C.) 20% ethanol in sterile water solution, the filter moved to a Hepa-filtered Finishing Room and the solid dried under house vacuum for 23 hours. The solid was transferred to glass drying trays and further air-dried for 115 hours until the total weight of the material was constant (no further solvent loss). A sample of this treprostinil monohydrate was taken as Lot #D-1007-089 for stability studies. The remaining material was further dried in a vacuum oven at 55° C. and 1.66 Torr for 10 hours to give 2.68 kg (96.4%) of anhydrous treprostinil (Lot #01G07018).
One of the stability studies has followed the monohydrate of TREPROSTINIL stored in an open container.

[1] = 1 Month, Container 1 (closed), room temperature
[2] = 1 Month, Container 2 (covered with Kimwipe), room temperature
[3] = 2 Months, Container 1 (closed), room temperature
[4] = 2 Months, Container 2 (covered with Kimwipe), room temperature
[5] = 3 Months, Container 1 (closed), room temperature
[6] = 3 Months, Container 2 (covered with Kimwipe), room temperature
[7] = 6 Months, Container 1 (closed), room temperature
[8] = 6 Months, Container 2 (covered with Kimwipe), room temperature
[9] = 12 Months, Container 1 (closed), room temperature
[10] = 12 Months, Container 2 (covered with Kimwipe), room temperature
[11] = 18 Month, Container 1 (closed), room temperature
[12] = 18 Month, Container 2 (covered with Kimwipe), room temperature
[13] = Initial, Container 1 (closed), room temperature
[14] = Initial, Container 2 (covered with Kimwipe), room temperature

- 750W93 [1]: 0.09%
- 751W93 [1]: 0.04%
- Impurity 1 [1]: 0.05
- Impurity 2 [1]: 0.05
- TREPROSTINIL Ethyl Ester [1]: 0.2%
- Total impurities [1]: 0.5%
- TREPROSTINIL Assay [1]: 100.1
- 750W93 [2]: 0.09%
- 751W93 [2]: 0.04%
- Impurity 1 [2]: 0.05
- Impurity 2 [2]: 0.05
- TREPROSTINIL Ethyl Ester [2]: 0.2%
- Total impurities [2]: 0.5%
- TREPROSTINIL Assay [2]: 100.4
- 750W93 [3]: 0.09%
- 751W93 [3]: 0.04%
- Impurity 1 [3]: 0.05
- Impurity 2 [3]: 0.05
- TREPROSTINIL Ethyl Ester [3]: 0.2%
- Total impurities [3]: 0.5%
- Water, KF [3]: 4.46%
- TREPROSTINIL Assay [3]: 99.5
- 750W93 [4]: 0.09%
- 751W93 [4]: 0.04%
- Impurity 1 [4]: 0.05
- Impurity 2 [4]: 0.05
- TREPROSTINIL Ethyl Ester [4]: 0.2%
- Total impurities [4]: 0.5%
- Water, KF [4]: 4.47%
- TREPROSTINIL Assay [4]: 99.6
- 750W93 [5]: 0.09%
- 751W93 [5]: 0.04%
- Impurity 1 [5]: 0.06
- Impurity 2 [5]: <0.05
- TREPROSTINIL Ethyl Ester [5]: 0.2%
- Total impurities [5]: 0.5%
- Water, KF [5]: 4.51%
- TREPROSTINIL Assay [5]: 98.1
- 750W93 [6]: 0.09%
- 751W93 [6]: 0.04%
- Impurity 1 [6]: 0.06
- Impurity 2 [6]: <0.05
- TREPROSTINIL Ethyl Ester [6]: 0.2%
- Total impurities [6]: 0.5%
- Water, KF [6]: 4.48%
- TREPROSTINIL Assay [6]: 98.6
- 750W93 [7]: 0.1%
- 751W93 [7]: 0.04%
- Impurity 1 [7]: <0.05
- Impurity 2 [7]: <0.05
- TREPROSTINIL Ethyl Ester [7]: 0.2%
- Total impurities [7]: 0.6%
- Water, KF [7]: 4.59%
- TREPROSTINIL Assay [7]: 99.4
- 750W93 [8]: 0.09%
- 751W93 [8]: 0.04%
- Impurity 1 [8]: <0.05
- Impurity 2 [8]: <0.05
- TREPROSTINIL Ethyl Ester [8]: 0.2%
- Total impurities [8]: 0.6%
- Water, KF [8]: 4.72%
- TREPROSTINIL Assay [8]: 99.3
- 750W93 [9]: 0.09%
- 751W93 [9]: < 0.05%
- Impurity 1 [9]: 0.06
- Impurity 2 [9]: 0.05
- TREPROSTINIL Ethyl Ester [9]: 0.2%
- Total impurities [9]: 0.5%
- Water, KF [9]: 4.72%
- TREPROSTINIL Assay [9]: 100.1
- 750W93 [10]: 0.09%
- 751W93 [10]: < 0.05%
- Impurity 1 [10]: 0.06
- Impurity 2 [10]: 0.05
- TREPROSTINIL Ethyl Ester [10]: 0.2%
- Total impurities [10]: 0.05%
- Water, KF [10]: 4.73%
- TREPROSTINIL Assay [10]: 100.3
- 750W93 [11]: 0.09%
- 751W93 [11]: < 0.05%
- Impurity 1 [11]: <0.05
- Impurity 2 [11]: 0.05
- TREPROSTINIL Ethyl Ester [11]: 0.2%
- Total impurities [11]: 0.05%
- Water, KF [11]: 4.67%
- TREPROSTINIL Assay [11]: 100.3
- 750W93 [12]: 0.09%
- 751W93 [12]: < 0.05%
- Impurity 1 [12]: <0.05
- Impurity 2 [12]: 0.05
- TREPROSTINIL Ethyl Ester [12]: 0.2%
- Total impurities [12]: 0.05%
- Water, KF [12]: 4.72%
- TREPROSTINIL Assay [12]: 99.8
- 750W93 [13]: 0.1%
- 751W93 [13]: 0.04%
- Impurity 1 [13]: 0.06
- Impurity 2 [13]: 0.05
- TREPROSTINIL Ethyl Ester [13]: 0.2%
- Total impurities [13]: 0.5%
- Water, KF [13]: 4.55%
- TREPROSTINIL Assay [13]: 99.6
- 750W93 [14]: 0.1%
- 751W93 [14]: 0.04%
- Impurity 1 [14]: 0.05
- Impurity 2 [14]: <0.05
- TREPROSTINIL Ethyl Ester [14]: 0.2%
- Total impurities [14]: 0.5%
- Water, KF [14]: 4.37%
- TREPROSTINIL Assay [14]: 99.5
- Retention of the one mole of water in the solid (open container, over 18-months): has not disappeared
- Stability compared with the anhydrous form (room temperature, e.g. 25° C. / ambient temperatures): more stable than the anhydrous form
SMILES: CCCCC[C@H](O)CC[C@@H]1[C@H]2Cc3cccc(OCC(=O)O)c3C[C@H]2C[C@H]1O [TREPROSTINIL Lot# D-1007-089, treprostinil monohydrate]
